The species named for one data set is Sus scrofa. Nature of the data set: Induction of pig brain microtubule stabilization at 25 uM measured after 15 mins by fluorescence based turbidimetry. The data set is classed as tissue-based.
Data set [1] has as its target Epidermal growth factor receptor (Homo sapiens, UniProt P00533). Kind of data set: Inhibition of recombinant 6His-tagged EGFR cytoplasmic domain (645 to 1186 residues) (unknown origin) autophosphorylation expressed in baculovirus infected Sf9 insect cells preincubated for 10 mins followed by ATP and MgCl2 addition measured after 60 mins by DELFIA/time-resolved fluorometric analysis.

Another data set deals with MIA PaCa-2. Kind of data set: Antiproliferative activity against human MIA PaCa-2 cells assessed as inhibition of cell growth incubated for 48 hrs by propidium iodide staining based fluorometer assay. The data set is classed as functional. The settings on record: MIA PaCa-2, 48 h.
Data set [2] is described as follows: Inhibition of full length mouse GST-tagged BRAF V600E mutant preincubated for 60 mins followed by addition of N-terminal His-tagged full length human MEK1 incubated for 25 mins in presence of ATP by ELISA assay. (An ELISA detects its analyte on a solid surface through an enzyme-linked reagent.)
A further data set relates to A549. Nature of the data set: Antiproliferative activity against human A549 cells assessed as inhibition of cell growth incubated for 48 hrs by propidium iodide staining based fluorometer assay. The following applies: A549, 48 h. The data set is classed as functional.
The next data set relates to PC-3. Kind of data set: cells. The settings on record: Homo sapiens, PC-3, 48 h.
The next data set deals with MCF7. Nature of the data set: Antiproliferative activity against human MCF7 cells assessed as inhibition of cell growth incubated for 48 hrs by propidium iodide staining based fluorometer assay. Type of data set: functional. The following applies: MCF7, 48 h.
Data set [3] has as its system L5178Y. Kind of data set: Reversal of multidrug resistance in mouse L5178Y cells transfected with human MDR1 assessed as reversal of rhodamine 123 accumulation at 50 ug/ml incubated for 30 mins by flow cytometry. The settings on record: dose 50.0 µg/ml. The data set is classed as functional, cell-based.
The test system of a further data set is NCI-H460. Nature of the data set: cells. The settings on record: Homo sapiens, NCI-H460, 48 h.
The nature of data set [4]: Cytotoxicity against human MCF-10A cells assessed as cell viability incubated for 96 hrs by MTT assay. The following applies: read-out: Activity. Also noted: concentration or dose not given beside the values. The data set is classed as toxicity, cell-based.
A short description of data set [5]: Toxicity in mouse L5178Y cells transfected with human MDR1 at 50 ug/ml after short period of incubation by tryptan blue assay. Type of data set: cell-based. The settings on record: dose 50 µg/ml.
For data set [6], the system named is L5178Y. Kind of data set: Reversal of multidrug resistance in mouse L5178Y cells transfected with human MDR1 assessed as reversal of rhodamine 123 accumulation at 5 ug/ml incubated for 30 mins by flow cytometry. The data set is classed as functional, cell-based. The following applies: dose 5.0 µg/ml. A general note: A flow cytometer gives signals particle by particle.

The subject of a further data set is PANC-1. Nature of the data set: cells. The following applies: Homo sapiens, PANC-1, 48 h.
The target in a further data set is Tubulin (Sus scrofa) (UniProt P02554+P02550). Nature of the data set: Inhibition of pig brain tubulin polymerization at 25 uM measured after 15 mins by fluorescence based turbidimetry. The data set is classed as tissue-based.
For a further data set, the system named is HT-29. Nature of the data set: cells. The following applies: Homo sapiens, HT-29, 48 h.

Structures are written as SMILES. The source made the active and inactive calls. The calls are words filed in the database; no cut-off is given here.

Sequence of Epidermal growth factor receptor (P00533 whole entry, the tested form may be a part): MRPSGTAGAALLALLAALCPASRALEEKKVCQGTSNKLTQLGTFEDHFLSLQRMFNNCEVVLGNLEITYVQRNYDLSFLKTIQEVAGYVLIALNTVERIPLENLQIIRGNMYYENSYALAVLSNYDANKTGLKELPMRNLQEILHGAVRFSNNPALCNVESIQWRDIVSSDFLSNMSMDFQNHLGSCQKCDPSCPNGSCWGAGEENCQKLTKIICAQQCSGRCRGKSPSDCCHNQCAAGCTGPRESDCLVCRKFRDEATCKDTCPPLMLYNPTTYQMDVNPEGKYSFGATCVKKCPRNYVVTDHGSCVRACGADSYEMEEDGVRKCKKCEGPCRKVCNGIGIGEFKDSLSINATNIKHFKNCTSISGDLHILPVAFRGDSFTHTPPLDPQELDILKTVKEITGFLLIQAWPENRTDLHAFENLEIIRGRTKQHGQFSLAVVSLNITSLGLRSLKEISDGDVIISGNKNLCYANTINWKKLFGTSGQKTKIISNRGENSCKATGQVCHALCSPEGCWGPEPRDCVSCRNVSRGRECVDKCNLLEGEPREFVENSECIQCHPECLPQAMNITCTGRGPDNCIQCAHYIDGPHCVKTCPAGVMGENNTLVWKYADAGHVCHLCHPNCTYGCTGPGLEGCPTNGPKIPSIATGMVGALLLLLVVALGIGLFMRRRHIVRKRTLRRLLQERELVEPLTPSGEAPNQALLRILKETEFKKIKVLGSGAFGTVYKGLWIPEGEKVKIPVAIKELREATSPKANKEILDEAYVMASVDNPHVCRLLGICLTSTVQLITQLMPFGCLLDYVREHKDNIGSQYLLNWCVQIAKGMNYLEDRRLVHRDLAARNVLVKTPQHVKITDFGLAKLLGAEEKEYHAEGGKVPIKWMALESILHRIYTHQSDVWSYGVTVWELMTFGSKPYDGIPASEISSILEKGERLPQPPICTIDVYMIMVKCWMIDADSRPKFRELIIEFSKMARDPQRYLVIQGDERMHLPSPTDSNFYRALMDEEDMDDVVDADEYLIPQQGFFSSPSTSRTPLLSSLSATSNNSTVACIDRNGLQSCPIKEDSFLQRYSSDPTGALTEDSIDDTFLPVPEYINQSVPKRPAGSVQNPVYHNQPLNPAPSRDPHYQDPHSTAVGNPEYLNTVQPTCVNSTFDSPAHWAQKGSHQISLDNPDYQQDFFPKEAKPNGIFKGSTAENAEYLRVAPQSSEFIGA
Sequence of Tubulin (Sus scrofa) (P02550 whole entry, looked up): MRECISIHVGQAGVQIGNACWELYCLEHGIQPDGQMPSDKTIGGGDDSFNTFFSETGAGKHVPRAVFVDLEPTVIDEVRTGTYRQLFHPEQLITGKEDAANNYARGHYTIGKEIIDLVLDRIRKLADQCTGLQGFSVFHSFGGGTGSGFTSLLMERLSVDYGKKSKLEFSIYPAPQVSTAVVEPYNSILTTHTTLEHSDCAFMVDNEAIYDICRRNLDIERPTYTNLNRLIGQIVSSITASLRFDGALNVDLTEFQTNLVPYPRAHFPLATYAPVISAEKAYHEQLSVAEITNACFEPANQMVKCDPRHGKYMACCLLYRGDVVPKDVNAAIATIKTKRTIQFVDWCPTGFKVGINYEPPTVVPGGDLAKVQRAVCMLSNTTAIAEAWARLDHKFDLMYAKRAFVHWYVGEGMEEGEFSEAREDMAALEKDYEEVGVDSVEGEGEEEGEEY
Sequence of Tubulin (Sus scrofa) (P02554 whole entry, looked up): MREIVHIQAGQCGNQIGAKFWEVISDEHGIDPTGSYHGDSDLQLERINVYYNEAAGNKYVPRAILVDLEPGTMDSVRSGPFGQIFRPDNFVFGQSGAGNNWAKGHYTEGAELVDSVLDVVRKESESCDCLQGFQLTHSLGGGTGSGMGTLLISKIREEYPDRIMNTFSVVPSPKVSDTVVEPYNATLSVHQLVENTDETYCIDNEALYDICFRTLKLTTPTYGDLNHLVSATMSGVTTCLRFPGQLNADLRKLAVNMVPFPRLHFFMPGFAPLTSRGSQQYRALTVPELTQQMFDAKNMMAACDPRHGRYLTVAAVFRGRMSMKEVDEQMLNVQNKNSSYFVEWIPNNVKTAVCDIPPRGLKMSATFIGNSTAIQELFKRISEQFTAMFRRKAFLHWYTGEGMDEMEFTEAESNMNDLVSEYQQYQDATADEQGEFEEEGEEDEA
Description for HT-29: Antiproliferative activity against human HT-29 cells assessed as inhibition of cell growth incubated for 48 hrs by propidium iodide staining based fluorometer assay
Description for NCI-H460: Antiproliferative activity against human NCI-H460 cells assessed as inhibition of cell growth incubated for 48 hrs by propidium iodide staining based fluorometer assay
Description for PANC-1: Antiproliferative activity against human PANC-1 cells assessed as inhibition of cell growth incubated for 48 hrs by propidium iodide staining based fluorometer assay
Description for PC-3: Antiproliferative activity against human PC-3 cells assessed as inhibition of cell growth incubated for 48 hrs by propidium iodide staining based fluorometer assay

A word on the IC50: it is the concentration needed to halve the response being measured. With `COc1cc(/C=C2\CC(C)C/C(=C\c3cc(OC)c(OC)c(OC)c3Br)C2=NO)c(Br)c(OC)c1OC` (stereo not given), the result in the data set listed under Sus scrofa, in the data set on L5178Y [3] and in the data set with L5178Y [6] was inactive. The IC50 was 0.5 µM in data set [1] (sf9); 0.7 µM with MIA PaCa-2; 2.7 µM in data set [2]; 0.3 µM in the data set on A549; 0.4 µM with PC-3; 0.4 µM with MCF7. In addition, the 50% inhibitory concentration (IC50) in the data set on NCI-H460 amounted to 0.4 µM; in the data set with PANC-1, 0.2 µM; in the data set with HT-29, 0.4 µM. In addition, in data set [4], the viability at 96 h was 98%. Further, the Activity result in [5] is reported as “Non-Toxic”. Also, the inhibition entry at Tubulin (Sus scrofa) is “Active”.
As to `COc1ccc2c(c1)CCC(=C\c1cc(OC)c(OC)c(OC)c1Br)/C2=N\O`, the result in the data set filed under Sus scrofa and in the data set with L5178Y [6] was inactive. The half-inhibitory concentration (IC50) in [1] came to 2.1 µM; with MIA PaCa-2, 1.2 µM; in [2], 1.9 µM; in the data set with A549, 1.2 µM; in the data set with PC-3 it was 1.4 µM; with MCF7, 0.8 µM. Also, the figures for the IC50 in the data set on NCI-H460, in the data set with PANC-1 and in the data set with HT-29 were 1.1 µM, 1 µM and 1.7 µM, respectively. In addition, the result in the data set with L5178Y [3] was Active. In data set [4], the viability at 96 h was determined as 92%. For the same compound, the Activity entry in [5] is given as “Non-Toxic”. The inhibition entry on Tubulin (Sus scrofa) is “Active”.
`COc1cc2c(cc1OC)C(=N/O)/C(=C/c1cc(OC)c(OC)c(OC)c1Br)CC2`: the result in the data set filed under Sus scrofa and in the data set on L5178Y [6] was inactive. Besides, the IC50 is 8.4 µM in data set [1]; 2.9 µM with MIA PaCa-2; 6.3 µM in data set [2]; 1.9 µM with A549; 2.2 µM with PC-3; 2.2 µM in the data set on MCF7. Further, the IC50 in the data set with NCI-H460 was 2.6 µM; in the data set on PANC-1, 2.1 µM; with HT-29, 2.2 µM. The outcome in the data set with L5178Y [3] was Active. Also, the viability at 96 h in [4] turned out to be 92%. For the same compound, in data set [5], the Activity result is recorded as “Non-Toxic”. Further, the inhibition entry on Tubulin (Sus scrofa) is “Active”.
Regarding `COc1cc(/C=C2\CCc3c(O)cccc3\C2=N\O)c(Br)c(OC)c1OC`, the result in the data set filed under Sus scrofa and in the data set with L5178Y [6] was inactive. In addition, the IC50 in [1] is 4.6 µM; in the data set on MIA PaCa-2, 1.2 µM; in [2], 1.7 µM; with A549, 2 µM; in the data set with PC-3 it was 2.3 µM; in the data set on MCF7, 1.4 µM. In addition, the concentration for half-maximal inhibition (IC50) with NCI-H460 stood at 1.3 µM; in the data set with PANC-1, 1.5 µM; in the data set on HT-29 it was 1.1 µM. In addition, in the data set with L5178Y [3], the outcome was Active. Besides, the viability at 96 h in data set [4] came to 90%. In addition, in data set [5], the Activity result is given as “Non-Toxic”. The inhibition entry on Tubulin (Sus scrofa) is “Active”.
Regarding `COc1cc(/C=C2\CCc3ccc([N+](=O)[O-])cc3\C2=N\O)c(Br)c(OC)c1OC`, the result in the data set filed under Sus scrofa and with L5178Y [6] was inactive. Also, the IC50 in data set [1] was found to be 1.9 µM; in the data set with MIA PaCa-2, 0.02 µM; in data set [2], 1 µM; in the data set with A549, 0.02 µM; in the data set with PC-3, 0.02 µM; in the data set with MCF7 it was 0.09 µM. For the same compound, the IC50 is 0.04 µM in the data set with NCI-H460, 0.02 µM in the data set on PANC-1 and 0.03 µM with HT-29. The result with L5178Y [3] was Active. Moreover, the viability at 96 h in data set [4] is 96%. Besides, the Activity result in [5] was “Non-Toxic”. Also, the inhibition result on Tubulin (Sus scrofa) is “Active”.
